Key:
Rattus norvegicus [1] = test: Percent inhibition was determined for in vivo ionophore induced rat pleurisy at a dose of 3 mg/kg; assay type: functional
Rattus norvegicus [2] = test: In vivo inhibition of ionophore induced rat pleurisy.; assay type: functional

| Structure (SMILES) | I (Rattus norvegicus [1]) [%] | ED50 (Rattus norvegicus [2]) [mg/kg] |
| --- | --- | --- |
| C/C(=N\OC(c1ccc(OCc2ccc3ccccc3n2)c(C)c1)C1CCCCC1)C(=O)O (stereo not drawn) | 58 |  |
| C/C(=N\OC(c1cc2ccc(OCc3ccc4ccccc4n3)cc2s1)C1CCCCC1)C(=O)O (stereo not drawn) | 80 |  |
| O=C(O)/C(=N/OC(c1ccc(OCc2ccc3ccccc3n2)cc1)C1CCCCC1)c1ccccc1 (stereo not drawn) | 41 |  |
| C/C(=N\OC(Cc1ccc(OCc2ccc3ccccc3n2)cc1)C1CCCCC1)C(=O)O (stereo not drawn) | 30 |  |
| C/C(=N\OC(c1ccc(OCc2ccc3ccccc3n2)cc1)C1CCCC1)C(=O)O (stereo not drawn) | 61 |  |
| C/C(=N\OC(c1ccc(OCc2nc(-c3ccccc3)cs2)cc1)C1CCCCC1)C(=O)O (stereo not drawn) | 15 |  |
| CCCCC(O/N=C/C(=O)O)c1ccc(OCc2ccc3ccccc3n2)cc1 (stereo not drawn) | 0 |  |
| C/C(=N\OC(c1ccc(OCc2ccc3ccccc3n2)cc1)c1cccs1)C(=O)O (stereo not drawn) | 6 |  |
| C/C(=N\OC(c1ccc(COc2ccc3ccccc3n2)cc1)C1CCCCC1)C(=O)O (stereo not drawn) | 0 |  |
| O=C(O)/C=N/OC(c1ccc2cc(OCc3ccc4ccccc4n3)ccc2c1)C1CCCCC1 (stereo not drawn) | 24 |  |
| C/C(CCC(=O)O)=N\OC(c1ccc(OCc2ccc3ccccc3n2)cc1)C1CCCCC1 (stereo not drawn) |  | 1 |
| O=C(O)/C=N/OC(c1ccc(OCc2csc(-c3ccc(Cl)cc3)n2)cc1)C1CCCCC1 (stereo not drawn) | 30 |  |
| O=C(O)/C(Cc1ccc(O)cc1)=N/OC(c1ccc(OCc2ccc3ccccc3n2)cc1)C1CCCCC1 (stereo not drawn) | 39 |  |
| C/C(=N\OC(c1ccc(OCc2ccc3ccccc3n2)c(Cl)c1)C1CCCCC1)C(=O)O (stereo not drawn) |  | 1.2 |
| O=C(O)C1CCC(=NOC(c2ccc(OCc3ccc4ccccc4n3)cc2)C2CCCCC2)CC1 (stereo not drawn) | 9 |  |
| O=C(O)/C=N/OC(c1cc2cc(OCc3ccc4ccccc4n3)ccc2o1)C1CCCCC1 (stereo not drawn) | 31 |  |
| O=C(O)/C=N/OC(c1ccc(OCc2nc(-c3ccccc3)cs2)cc1)C1CCCCC1 (stereo not drawn) | 0 |  |
| O=C(O)c1ccc(/C=N/OC(c2ccc(OCc3ccc4ccccc4n3)cc2)C2CCCCC2)cc1 (stereo not drawn) | 41 |  |
| C/C(CCCC(=O)O)=N\OC(c1ccc(OCc2ccc3ccccc3n2)cc1)C1CCCCC1 (stereo not drawn) |  | 3 |
| C/C(=N\OC(CCCc1ccc(F)cc1)c1ccc(OCc2ccc3ccccc3n2)cc1)C(=O)O (stereo not drawn) |  | 2.6 |

| Structure (SMILES) | I (Rattus norvegicus [1]) [%] | ED50 (Rattus norvegicus [2]) [mg/kg] |
| --- | --- | --- |
| O=C(O)/C=N/OC(c1ccc(OCc2nc3ccccc3s2)cc1Cl)C1CCCCC1 (stereo not drawn) | 84 |  |
| CCCCC(CCCC)C(O/N=C(\C)C(=O)O)c1ccc(OCc2ccc3ccccc3n2)cc1 (stereo not drawn) | 40 |  |
| Cc1nc(COc2ccc(C(O/N=C/C(=O)O)C3CCCCC3)cc2)cs1 (stereo not drawn) | 4 |  |
| C/C(=N\OC(c1ccc(OCc2ccc3ccccc3n2)cc1)C1C2CC3CC(C2)CC1C3)C(=O)O (stereo not drawn) |  | 0.6 |
| C/C(CCC(=O)O)=N/OC(c1ccc(OCc2ccc3ccccc3n2)cc1)C1CCCCC1 (stereo not drawn) | 62 |  |
| O=C(O)/C=N/OC(c1ccc(OCc2ccc3ccccc3n2)cc1)C1C2CC3CC(C2)CC1C3 (stereo not drawn) |  | 1.2 |
| C/C(CCCCCC(=O)O)=N\OC(c1ccc(OCc2ccc3ccccc3n2)cc1)C1CCCCC1 (stereo not drawn) | 5 |  |
| C/C(=N\OC(c1ccc(OCc2ccc3ccccc3n2)cc1)C1CCCCCC1)C(=O)O (stereo not drawn) |  | 0.7 |
| C/C(=N\OC(CC(C)(C)c1ccccc1)c1ccc(OCc2ccc3ccccc3n2)cc1)C(=O)O (stereo not drawn) |  | 2 |
| CC(C)c1ccc(-c2csc(COc3ccc(C(O/N=C/C(=O)O)C4CCCCC4)cc3)n2)cc1 (stereo not drawn) | 15 |  |
| O=C(O)/C=N/OC(c1ccc(OCc2nc3cc(F)ccc3s2)cc1Cl)C1CCCCC1 (stereo not drawn) |  | 1.7 |
| O=C(O)/C=N/OC(c1ccc(OCc2ccc3ccccc3n2)cc1)C1CCCC1 (stereo not drawn) | 27 |  |
| O=C(O)/C=N/OC(c1ccc(OCc2cnc3ccccc3n2)cc1)C1CCCCC1 (stereo not drawn) | 28 |  |
| O=C(O)/C=N/OC(c1ccc(OCc2nc3cc(F)ccc3s2)cc1)C1CCCCC1 (stereo not drawn) | 0 |  |
| CC(C)(C)Sc1c(CC(C)(C)C(=O)[O-])n(Cc2ccc(Cl)cc2)c2ccc(OCc3ccc4ccccc4n3)cc12.[Na+] [QUIFLAPON SODIUM] |  | 1.6 |
| CCCCC(CCCC)C(O/N=C/C(=O)O)c1ccc(OCc2ccc3ccccc3n2)cc1 (stereo not drawn) | 7 |  |
| O=C(O)/C(=N/OC(c1ccc(OCc2ccc3ccccc3n2)cc1)C1CCCCC1)c1cccs1 (stereo not drawn) | 29 |  |
| C/C(=N\OC(c1ccc(OCc2ccc3cc(F)ccc3n2)cc1)C1CCCCC1)C(=O)O (stereo not drawn) |  | 0.4 |
| O=C(O)CSC(CCCc1ccc(Cl)cc1)c1ccc(OCc2ccc3ccccc3n2)cc1 (stereo not drawn) |  | 1.6 |
| C/C(=N\OC(c1ccc(OCc2nc3ccccc3s2)cc1Cl)C1CCCCC1)C(=O)O (stereo not drawn) |  | 2.6 |

| Structure (SMILES) | I (Rattus norvegicus [1]) [%] | ED50 (Rattus norvegicus [2]) [mg/kg] |
| --- | --- | --- |
| O=C(O)/C=N/OC(c1ccc(OCc2ccc3ccccc3n2)cc1)C1CCCCC1 (stereo not drawn) |  | 2.5 |
| O=C(O)[C@@H](c1ccc(OCc2ccc3ccccc3n2)cc1)C1CCCC1 [VELIFLAPON] |  | 4 |
| Cc1cc(C(O/N=C/C(=O)O)C2CCCCC2)ccc1OCc1ccc2ccccc2n1 (stereo not drawn) | 15 |  |
| C/C(=N\OCC(c1ccc(OCc2ccc3ccccc3n2)cc1)C1CCCCC1)C(=O)O (stereo not drawn) | 33 |  |
| COc1cc(OCc2ccc3ccccc3n2)ccc1C(O/N=C/C(=O)O)C1CCCCC1 (stereo not drawn) | 41 |  |
| CC(c1cc2ccccc2s1)N(O)C(N)=O (stereo not drawn) [ZILEUTON] |  | 6 |
| O=C(O)/C=N/OC(c1ccc(OCc2ccccn2)cc1)C1CCCCC1 (stereo not drawn) | 3 |  |
| O=C(O)/C=N/OC(c1ccc(OCc2nc3cccnc3s2)cc1)C1CCCCC1 (stereo not drawn) | 47 |  |
| O=C(O)/C=N/OC(c1ccc(OCc2nc3ccccc3s2)cc1)C1CCCCC1 (stereo not drawn) |  | 3 |
| C/C(=N\OC(c1ccc(OCc2nc3ccccc3s2)cc1)C1CCCCC1)C(=O)O (stereo not drawn) | 85 |  |
| O=C(O)/C=N/OC(c1ccc(OCc2nc3ccccc3s2)cc1Br)C1CCCCC1 (stereo not drawn) |  | 1 |
| O=C(O)/C(=N\OC(c1ccc(OCc2ccc3ccccc3n2)cc1)C1CCCCC1)c1cccs1 (stereo not drawn) | 60 |  |
| C/C(=N\OC(Cc1ccccc1)c1ccc(OCc2ccc3ccccc3n2)cc1)C(=O)O (stereo not drawn) | 36 |  |
| O=C(O)/C=N/OC(c1ccc(OCc2ccc3cc(F)ccc3n2)cc1)C1CCCCC1 (stereo not drawn) | 39 |  |
| O=C(O)/C=N/OC(c1ccc(OCc2nc3ccccc3o2)cc1)C1CCCCC1 (stereo not drawn) | 14 |  |
| CC(/C=C/C(=O)O)=N\OC(c1ccc(OCc2ccc3ccccc3n2)cc1)C1CCCCC1 (stereo not drawn) |  | 2 |
| C/C(=N\OC(c1ccc(OCc2nc3cc(F)ccc3s2)cc1Cl)C1CCCCC1)C(=O)O (stereo not drawn) | 22 |  |
| O=C(O)/C(CCc1ccccc1)=N/OC(c1ccc(OCc2ccc3ccccc3n2)cc1)C1CCCCC1 (stereo not drawn) | 34 |  |

From ChEMBL document CHEMBL1133707, “Heteroarylmethoxyphenylalkoxyiminoalkylcarboxylic acids as leukotriene biosynthesis inhibitors” (J Med Chem, 2000)
